From PubChem BioAssay AID248 (DTP/NCI, 2004)
Values joined by “and” are separate entries in the source; they are usually repeats but may differ in a detail not shown here. Equal entries are not always repeated. Inconclusive results and toxic doses are left out.

System: L1210 leukemia ip in BDF1 mice, survival T/C
Test: NCI In Vivo Anticancer Drug Screen. Data for tumor model L1210 Leukemia (intraperitoneal) in B6D2F1 (BDF1) mice
Settings: endpoint: mean survival time, higher = longer survival
Summary of the method: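 Tumor was transplanted into mice, which were then dosed with test compound or vehicle alone. Survival was recorded for each group, and the treated figure was expressed relative to the control figure.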

[1] = dose: 100.0 mg/kg/injection, schedule: Q04DX003 (ip), vehicle: Klucel (hydroxypropylcellulose) (HPC)
[2] = dose: 200.0 mg/kg/injection, schedule: Q04DX003 (ip), vehicle: Klucel (hydroxypropylcellulose) (HPC)
[3] = dose: 100.0 mg/kg/injection, schedule: Q01DX001 (ip), vehicle: saline with Tween-80
[4] = dose: 200.0 mg/kg/injection, schedule: Q01DX001 (ip), vehicle: saline with Tween-80
[5] = dose: 400.0 mg/kg/injection, schedule: Q01DX001 (ip), vehicle: saline with Tween-80
[6] = dose: 100.0 mg/kg/injection, schedule: Q01DX001 (ip), vehicle: saline
[7] = dose: 200.0 mg/kg/injection, schedule: Q01DX001 (ip), vehicle: saline
[8] = dose: 400.0 mg/kg/injection, schedule: Q01DX001 (ip), vehicle: saline
[9] = dose: 100.0 mg/kg/injection, schedule: Q04DX002 (ip), vehicle: saline with Tween-80
[10] = dose: 200.0 mg/kg/injection, schedule: Q04DX002 (ip), vehicle: saline with Tween-80
[11] = dose: 400.0 mg/kg/injection, schedule: Q04DX002 (ip), vehicle: saline with Tween-80
[12] = dose: 100.0 mg/kg/injection, schedule: Q04DX003 (ip), vehicle: saline with Tween-80

## CC12CCC(O)C(C)(C)C1CCC1=C2CCC2(C)C(c3ccoc3)CCC12C (stereo not given)
dose: 50.0 mg/kg/injection, schedule: Q01DX001 (sc), vehicle: steriod suspending solution
  T/C: 111 % of control
dose: 100.0 mg/kg/injection, schedule: Q01DX001 (sc), vehicle: steriod suspending solution
  T/C: 115 % of control
dose: 200.0 mg/kg/injection, schedule: Q01DX001 (sc), vehicle: steriod suspending solution
  T/C: 105 % of control
dose: 400.0 mg/kg/injection, schedule: Q01DX001 (sc), vehicle: steriod suspending solution
  T/C: 109 % of control

## Cc1c(Cl)cc(Cl)c2ncccc12
dose: 12.5 mg/kg/injection, schedule: Q04DX003 (ip), vehicle: Klucel (hydroxypropylcellulose) (HPC)
  T/C: 95 % of control
dose: 25.0 mg/kg/injection, schedule: Q04DX003 (ip), vehicle: Klucel (hydroxypropylcellulose) (HPC)
  T/C: 86 % of control
dose: 50.0 mg/kg/injection, schedule: Q04DX003 (ip), vehicle: Klucel (hydroxypropylcellulose) (HPC)
  T/C: 96 % of control

## CC(CO)NC(=O)c1ccc(N)cc1 (stereo not given)
dose: 100.0 mg/kg/injection, schedule: Q04DX003 (ip), vehicle: saline
  T/C: 107 % of control
dose: 200.0 mg/kg/injection, schedule: Q04DX003 (ip), vehicle: saline
  T/C: 100 % of control
dose: 400.0 mg/kg/injection, schedule: Q04DX003 (ip), vehicle: saline
  T/C: 102 % of control

## CCCCCCCCCCCCSC(=O)CCC(=O)O
dose: 50.0 mg/kg/injection, schedule: Q01DX009 (ip), vehicle: other
  T/C: 102 % of control
dose: 100.0 mg/kg/injection, schedule: Q01DX009 (ip), vehicle: other
  T/C: 108 % of control
[1]
  T/C: 97 % of control
dose: 200.0 mg/kg/injection, schedule: Q01DX009 (ip), vehicle: other
  T/C: 97 % of control
[2]
  T/C: 103 % of control

## CC(=O)Nc1cccc(N=Cc2ccc(N(CCOS(C)(=O)=O)CCOS(C)(=O)=O)cc2C)c1
dose: 8.0 mg/kg/injection, schedule: Q01DX009 (ip), vehicle: saline with Tween-80
  T/C: 120 % of control

## O=C1C(=O)c2c(nc3ccccn23)-c2ccccc21
dose: 100.0 mg/kg/injection, schedule: Q01DX001 (ip), vehicle: Klucel (hydroxypropylcellulose) (HPC)
  T/C: 103 % of control
dose: 200.0 mg/kg/injection, schedule: Q01DX001 (ip), vehicle: Klucel (hydroxypropylcellulose) (HPC)
  T/C: 94 % of control
dose: 400.0 mg/kg/injection, schedule: Q01DX001 (ip), vehicle: Klucel (hydroxypropylcellulose) (HPC)
  T/C: 105 % of control

## CC(C)CN(OC(=O)c1ccccc1)[N+](=O)[O-]
dose: 50.0 mg/kg/injection, schedule: Q04DX002 (ip), vehicle: saline
  T/C: 94 % of control
dose: 100.0 mg/kg/injection, schedule: Q04DX002 (ip), vehicle: saline
  T/C: 108 % of control
dose: 200.0 mg/kg/injection, schedule: Q04DX002 (ip), vehicle: saline
  T/C: 102 % of control

## O=[N+]([O-])c1ccc(OCCOCCOc2ccc(S(=O)(=O)F)cc2)c(Cl)c1
[3]
  T/C: 89 % of control
[4]
  T/C: 97 % of control
[5]
  T/C: 103 % of control

## C=CC(COC(C)=O)N1CC1 (stereo not given) (tested in a mixture with another compound)
dose: 30.0 mg/kg/injection, schedule: Q04DX003 (ip), vehicle: saline
  T/C: 166 % of control
dose: 60.0 mg/kg/injection, schedule: Q04DX003 (ip), vehicle: saline
  T/C: 107 % of control

## CCCOC(=O)C(CC(C)(C)C)CC(C)(C)C
[6]
  T/C: 104 % of control
[7]
  T/C: 104 % of control
[8]
  T/C: 101 % of control

## COc1c2occc2c(OC)c2c(=O)cc(/C=C/c3cccnc3)oc12
[6]
  T/C: 97 % of control
[7]
  T/C: 101 % of control
[8]
  T/C: 101 % of control

## CN(C)c1nc2c(N)ncnc2n1C1OC(CO)C(O)C1O (stereo not given)
dose: 6.25 mg/kg/injection, schedule: Q01DX009 (ip), vehicle: saline
  T/C: 100 % of control
dose: 12.5 mg/kg/injection, schedule: Q01DX005 (ip), vehicle: saline
  T/C: 95 % of control
dose: 12.5 mg/kg/injection, schedule: Q01DX009 (ip), vehicle: saline
  T/C: 96 % of control
dose: 25.0 mg/kg/injection, schedule: Q01DX005 (ip), vehicle: saline
  T/C: 101 % of control
dose: 25.0 mg/kg/injection, schedule: Q01DX009 (ip), vehicle: saline
  T/C: 110 % of control
dose: 50.0 mg/kg/injection, schedule: Q01DX005 (ip), vehicle: saline
  T/C: 108 % of control

## COc1cccc(C2NC(=O)CCC2[N+](=O)[O-])c1OC (stereo not given)
[9]
  T/C: 105 % of control
[10]
  T/C: 102 % of control
[11]
  T/C: 94 % of control

## CCCCCCOC(=O)Nc1ccc(S(=O)(=O)N(CCC)CCC)cc1
[6]
  T/C: 97 % of control
[7]
  T/C: 95 % of control
[8]
  T/C: 97 % of control

## O=C(Nc1cccc(F)c1)Nc1ccc2ccccc2c1
dose: 100.0 mg/kg/injection, schedule: Q01DX009 (ip), vehicle: Klucel (hydroxypropylcellulose) (HPC)
  T/C: 105 % of control
dose: 200.0 mg/kg/injection, schedule: Q01DX009 (ip), vehicle: Klucel (hydroxypropylcellulose) (HPC)
  T/C: 97 % of control
dose: 400.0 mg/kg/injection, schedule: Q01DX009 (ip), vehicle: Klucel (hydroxypropylcellulose) (HPC)
  T/C: 97 % of control

## CCCCCCCCCC(O)CCCC (stereo not given)
dose: 25.0 mg/kg/injection, schedule: Q01DX009 (ip), vehicle: saline with Tween-80
  T/C: 108 % of control
dose: 50.0 mg/kg/injection, schedule: Q01DX009 (ip), vehicle: saline with Tween-80
  T/C: 97 % of control
dose: 100.0 mg/kg/injection, schedule: Q01DX009 (ip), vehicle: saline with Tween-80
  T/C: 94 % of control and 98 % of control
[12]
  T/C: 98 % of control
dose: 200.0 mg/kg/injection, schedule: Q04DX003 (ip), vehicle: saline with Tween-80
  T/C: 98 % of control
dose: 400.0 mg/kg/injection, schedule: Q04DX003 (ip), vehicle: saline with Tween-80
  T/C: 96 % of control

## O=C(NCCO)Nc1cccc2c1CCCC2
[9]
  T/C: 108 % of control
[10]
  T/C: 104 % of control
[11]
  T/C: 87 % of control

## CCCCNc1nc(SC)nc2nc[nH]c12
[1]
  T/C: 95 % of control
[2]
  T/C: 96 % of control
dose: 400.0 mg/kg/injection, schedule: Q04DX003 (ip), vehicle: Klucel (hydroxypropylcellulose) (HPC)
  T/C: 91 % of control

## CN(C)CCC(N)c1cccc2ccccc12 (stereo not given)
dose: 25.0 mg/kg/injection, schedule: Q04DX002 (ip), vehicle: saline with Tween-80
  T/C: 91 % of control
dose: 50.0 mg/kg/injection, schedule: Q04DX002 (ip), vehicle: saline with Tween-80
  T/C: 116 % of control
[9]
  T/C: 98 % of control

## CN(C)C(=O)Nc1ccc([N+](=O)[O-])cc1[N+](=O)[O-]
[3]
  T/C: 96 % of control
[4]
  T/C: 89 % of control
[5]
  T/C: 94 % of control
dose: 800.0 mg/kg/injection, schedule: Q04DX002 (ip), vehicle: saline with Tween-80
  T/C: 104 % of control and 107 % of control

## CCCc1cc(CN2CCOCC2)c(O)c(CN2CCOCC2)c1O
[6]
  T/C: 91 % of control
[7]
  T/C: 93 % of control
[8]
  T/C: 95 % of control

## CC(=O)Nc1c(Cl)cc2c(c1Cl)Cc1cc(C#N)ccc1-2
dose: 100.0 mg/kg/injection, schedule: Q01DX001 (ip), vehicle: carboxymethylcellulose (CMC)
  T/C: 102 % of control
dose: 200.0 mg/kg/injection, schedule: Q01DX001 (ip), vehicle: carboxymethylcellulose (CMC)
  T/C: 102 % of control
dose: 400.0 mg/kg/injection, schedule: Q01DX001 (ip), vehicle: carboxymethylcellulose (CMC)
  T/C: 98 % of control

## N#Cc1cn(C2OC(CO)C(O)C2O)c2ncn(O)c(=N)c12 (stereo not given)
dose: 0.19 mg/kg/injection, schedule: Q01DX005 (ip), vehicle: saline
  T/C: 112 % of control
dose: 0.19 mg/kg/injection, schedule: Q01DX009 (ip), vehicle: saline
  T/C: 107 % of control
dose: 0.39 mg/kg/injection, schedule: Q01DX005 (ip), vehicle: saline
  T/C: 96 % of control
dose: 0.39 mg/kg/injection, schedule: Q01DX009 (ip), vehicle: saline
  T/C: 97 % of control
dose: 0.78 mg/kg/injection, schedule: Q01DX005 (ip), vehicle: saline
  T/C: 100 % of control
dose: 0.78 mg/kg/injection, schedule: Q01DX009 (ip), vehicle: saline
  T/C: 100 % of control
dose: 1.56 mg/kg/injection, schedule: Q01DX005 (ip), vehicle: saline
  T/C: 94 % of control

## c1cc2c3c(c1)nc(CCCc1nc4cccc5c4n1CCC5)n3CCC2
dose: 25.0 mg/kg/injection, schedule: Q04DX003 (ip), vehicle: saline with Tween-80
  T/C: 109 % of control
dose: 50.0 mg/kg/injection, schedule: Q04DX003 (ip), vehicle: saline with Tween-80
  T/C: 96 % of control
[12]
  T/C: 93 % of control and 87 % of control

## COc1cc(C=C(C#N)C#N)ccc1O
dose: 12.5 mg/kg/injection, schedule: Q01DX009 (ip), vehicle: Klucel (hydroxypropylcellulose) (HPC)
  T/C: 103 % of control
dose: 25.0 mg/kg/injection, schedule: Q01DX009 (ip), vehicle: Klucel (hydroxypropylcellulose) (HPC)
  T/C: 97 % of control
